One compound from patent US11492374B2 (priority 2020, dated 2022) can be followed below.

Assay [1] has as its target recombinant human mu opioid receptor (MOR) (Homo sapiens (Human), UniProt P35372). The assay is described as follows: Opioid receptor radioligand binding assay, MOR ([3H]DAMGO). The conditions noted are these: membranes of HEK293 cells expressing recombinant human MOR; 0.5 nM [3H]DAMGO.
The target of assay [2] is recombinant human kappa opioid receptor (KOR) (Homo sapiens (Human), UniProt P41145). Type of assay: binding.

In the case of `CC(C)C[C@@H](NC(=O)[C@@H](Cc1ccccc1)NC(=O)[C@H](N)[C@H](C)c1ccccc1)C(=O)N[C@H](CCCCN)C(=O)N1CCC(N)(C(=O)O)CC1` [Compound 18], the concentration for half-maximal inhibition (IC50) in assay [1] stood at 9.81 µM. Besides, in assay [2], the IC50 was 0.000253 µM, the δ/k is on record as over 39603 and the μ/k is reported as 38855.

A word on the IC50: it is the concentration that inhibits the measured activity by half.
